Measured values: patent publication US9556201B2, “Bicyclic pyridines and analogs as sirtuin modulators” (GLAXOSMITHKLINE LLC, priority 2009, dated 2017)

Target: T1, SIRT1 (Homo sapiens, UniProt Q96EB6)
T1 sequence (Q96EB6 1-747): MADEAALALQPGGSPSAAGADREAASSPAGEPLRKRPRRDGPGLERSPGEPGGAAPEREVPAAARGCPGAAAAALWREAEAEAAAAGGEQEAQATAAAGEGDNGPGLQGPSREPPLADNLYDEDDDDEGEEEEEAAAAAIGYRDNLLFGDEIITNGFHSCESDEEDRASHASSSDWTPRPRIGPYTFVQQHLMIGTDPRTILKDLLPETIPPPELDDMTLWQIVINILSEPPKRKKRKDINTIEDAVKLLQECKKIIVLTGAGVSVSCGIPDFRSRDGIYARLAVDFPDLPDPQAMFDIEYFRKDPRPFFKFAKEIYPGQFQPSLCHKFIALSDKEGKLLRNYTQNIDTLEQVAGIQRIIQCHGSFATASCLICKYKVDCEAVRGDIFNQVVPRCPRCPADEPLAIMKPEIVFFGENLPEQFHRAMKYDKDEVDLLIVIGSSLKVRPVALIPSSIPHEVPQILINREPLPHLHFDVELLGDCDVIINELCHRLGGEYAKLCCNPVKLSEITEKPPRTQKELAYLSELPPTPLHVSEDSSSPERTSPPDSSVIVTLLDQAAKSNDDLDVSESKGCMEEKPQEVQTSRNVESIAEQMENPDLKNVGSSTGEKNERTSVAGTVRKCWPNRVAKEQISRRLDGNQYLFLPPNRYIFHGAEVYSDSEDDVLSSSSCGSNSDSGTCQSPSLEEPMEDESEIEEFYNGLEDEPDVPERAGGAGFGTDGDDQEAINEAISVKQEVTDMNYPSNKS
Assay: Mass spectrometry based assay to identify modulators of SIRT1 activity (deacetylation of p53-based acetylated peptide substrate)
Type: biochemical
Settings: for Emax: 25 min, read-out: % FOLD ACT. (percent maximum fold activation); for Emax / EC1.5: SIRT1 activation
Description: A mass spectrometry based assay was used to identify modulators of SIRT1 activity. The mass spectrometry based assay utilizes a peptide having 20 amino acid residues as follows: Ac-EE-K(biotin)-GQSTSSHSK(Ac)NleSTEG-K(5TMR)-EE-NH2 (SEQ ID NO: 1) wherein K(Ac) is an acetylated lysine residue and Nle is a norleucine. The peptide is labeled with the fluorophore 5TMR (excitation 540 nm/emission 580 nm) at the C-terminus. The sequence of the peptide substrate is based on p53 with several modifications. In addition, the methionine residue naturally present in the sequence was replaced with the norleucine because the methionine may be susceptible to oxidation during synthesis and purification.
The mass spectrometry assay is conducted as follows: […] peptide substrate and 120 μM βNAD^+ is incubated with 10 nM SIRT1 for 25 minutes at 25° C. in a reaction buffer (50 mM Tris-acetate pH 8, 137 mM NaCl, 2.7 mM KCl, 1 mM MgCl2, 5 mM DTT, 0.05% BSA). Test compounds may be added to the reaction as described above. The SirT1 gene is cloned into a T7-promoter containing vector and transformed into BL21(DE3). After the 25 minute incubation with SIRT1, 10 μL of 10% formic acid is added to stop the reaction. Reactions are sealed and frozen for later mass spec analysis. Determination of the mass of the substrate peptide allows for precise determination of the degree of acetylation (i.e. starting material) as compared to deacetylated peptide (product).
A control for inhibition of sirtuin activity is conducted by adding 1 μL of 500 mM nicotinamide as a negative control at the start of the reaction (e.g., permits determination of maximum sirtuin inhibition). A control for activation of sirtuin activity is conducted using 10 nM of sirtuin protein, with 1 μL of DMSO in place of compound, to determine the amount of deacetylation of the substrate at a given timepoint within the linear range of the assay. This timepoint is the same as that used for test compounds and, within the linear range, the endpoint represents a change in velocity.
For the above assay, SIRT1 protein was expressed and purified as follows. The SirT1 gene was cloned into a T7-promoter containing vector and transformed into BL21(DE3). The protein was expressed by induction with 1 mM IPTG as an N-terminal His-tag fusion protein at 18° C. overnight and harvested at 30,000×g. Cells were lysed with lysozyme in lysis buffer (50 mM Tris-HCl, 2 mM Tris[2-carboxyethyl]phosphine (TCEP), 10 μM ZnCl2, 200 mM NaCl) and further treated with sonication for 10 min for complete lysis. The protein was purified over a Ni-NTA column (Amersham) and fractions containing pure protein were pooled, concentrated and run over a sizing column (Sephadex S200 26/60 global). The peak containing soluble protein was collected and run on an Ion-exchange column (MonoQ). Gradient elution (200 mM-500 mM NaCl) yielded pure protein. This protein was concentrated and dialyzed against dialysis buffer (20 mM Tris-HCl, 2 mM TCEP) overnight. The protein was aliquoted and frozen at −80° C. until further use.

Row | SMILES | Emax | EC1.5 | EC1.5 (concentration giving 1.5-fold activation)
1 | CN1C(=O)CN(C(=O)Nc2nccs2)c2nc(-c3cccc(C(F)(F)F)c3)ccc21 [Compound 520, 1-methyl-2-oxo-N-(thiazol-2-yl)-6-(3-(trifluoromethyl)phenyl)-2,3-dihydropyrido[2,3-b]pyrazine-4(1H)-carboxamide] | ≤ 200% | B (EC1.5 1-25 μM) | –
2 | O=C(Nc1ccnc(N2CCC2)c1)N1CCCOc2ccc(-c3cccc(F)c3)nc21 [Compound 584] | > 200% | B (EC1.5 1-25 μM) | –
3 | COc1cccc(-c2ccc3c(n2)N(C(=O)Nc2ccncn2)CCO3)c1 [Compound 515] | > 200% | B (EC1.5 1-25 μM) | –
4 | O=C(Nc1ccncn1)N1CCOc2cnc(-c3cccc(C(F)(F)F)c3)nc21 [Compound 714] | ≤ 200% | – | 1 to 25 µM
5 | O=C(Nc1ccccn1)N1CCCC(F)(F)c2ccc(-c3cccc(Cl)c3)nc21 [Compound 778] | ≤ 200% | – | > 25 µM
6 | Cc1cc(OCC(O)CO)nc(NC(=O)N2CCCOc3ccc(-c4cccc(Cl)c4)nc32)n1 (stereo not drawn) [Compound 859] | > 200% | – | 1 to 25 µM
7 | Cc1cc(NC(=O)N2CCOc3ccc(-c4cc(C)nn4C)nc32)cc(C)n1 [Compound 632] | > 200% | B (EC1.5 1-25 μM) | –
8 | CCN1C(=O)CCN(C(=O)Nc2cccc(OC[C@@H](O)CO)n2)c2nc(-c3cccc(Cl)c3)ccc21 [Compound 788] | ≤ 200% | – | > 25 µM
9 | O=C(Nc1cccc(OC[C@H](O)CO)n1)N1CCCc2ccc(-c3ccc4c(c3)CCO4)nc21 [Compound 702] | > 200% | – | < 1 µM
10 | CCN1CCCN(C(=O)Nc2ccccn2)c2nc(-c3cccc(Cl)c3)ccc21 [Compound 790] | ≤ 200% | – | > 25 µM
11 | O=C(Nc1ccncc1)N1CCOc2ccc(-c3ccccc3C(F)(F)F)nc21 [Compound 546] | > 200% | B (EC1.5 1-25 μM) | –
12 | O=C(Nc1ccncn1)N1CCCOc2ccc(-c3cccc(F)c3)nc21 [Compound 580] | > 200% | B (EC1.5 1-25 μM) | –
13 | O=C(Nc1ccncn1)N1CCCCc2ccc(-c3cccc(C(F)(F)F)c3)nc21 [Compound 815] | > 200% | – | 1 to 25 µM
14 | Cc1cccnc1NC(=O)N1CCCOc2ccc(-c3cccc(Cl)c3)nc21 [Compound 871] | ≤ 200% | – | > 25 µM
15 | CN1C(=O)CN(C(=O)Nc2ncco2)c2nc(-c3cccc(C(F)(F)F)c3)ccc21 [Compound 523] | ≤ 200% | C (EC1.5>25 μM) | –
16 | Cc1cc(OCC(O)CO)nc(NC(=O)N2CCC(C)(C)c3ccc(-c4cccc(C(F)(F)F)c4)nc32)n1 (stereo not drawn) [Compound 844] | > 200% | – | 1 to 25 µM
17 | Cc1cc(NC(=O)N2CCCC(F)(F)c3ccc(-c4cccc(Cl)c4)nc32)cc(C)n1 [Compound 772] | > 200% | – | 1 to 25 µM
18 | CC1(C)CCN(C(=O)Nc2ccncc2F)c2nc(-c3cccc(Cl)c3)ccc2C1=O [Compound 836, 2-(3-chlorophenyl)-N-(3-fluoropyridin-4-yl)-6,6-dimethyl-5-oxo-7,8-dihydro-5H-pyrido[2,3-b]azepine-9(6H)-carboxamide] | ≤ 200% | – | 1 to 25 µM
19 | O=C(Nc1cccnc1)N1CCCC(F)(F)c2ccc(-c3cccc(Cl)c3)nc21 [Compound 771] | ≤ 200% | – | > 25 µM
20 | CC1(C)CCN(C(=O)Nc2ccccn2)c2nc(-c3cccc(C(F)(F)F)c3)ccc21 [Compound 827] | > 200% | – | < 1 µM

Row | SMILES | Emax | EC1.5 | EC1.5 (concentration giving 1.5-fold activation)
21 | O=C1CCCN(C(=O)Nc2ccncc2F)c2nc(-c3cccc(C(F)(F)F)c3)ccc21 [Compound 821] | > 200% | – | 1 to 25 µM
22 | CN1C(=O)CN(C(=O)Nc2cccc(N3CCOCC3)n2)c2nc(-c3cccc(C(F)(F)F)c3)ccc21 [Compound 563] | > 200% | A (EC1.5<1.0 μM) | –
23 | Cc1ccc(-c2ccc3c(n2)N(C(=O)Nc2ccnc(C)c2)CCCO3)cn1 [Compound 635] | ≤ 200% | C (EC1.5>25 μM) | –
24 | O=C(Nc1ccnc(OC[C@@H](O)CO)n1)N1CCOc2ccc(-c3cccc(C(F)(F)F)c3)nc21 [Compound 732] | ≤ 200% | – | > 25 µM
25 | CC1(C)CCN(C(=O)Nc2ccccn2)c2nc(-c3cccc(Cl)c3)ccc2C1=O [Compound 783] | ≤ 200% | – | > 25 µM
26 | O=C(Nc1ccncc1)N1CCOc2c(N3CCCC3)nc(-c3cccc(F)c3)nc21 [Compound 737] | ≤ 200% | – | > 25 µM
27 | O=C(Nc1ccncn1)N1CCCC(F)(F)c2ccc(-c3cccc(Cl)c3)nc21 [Compound 799, 2-(3-chlorophenyl)-5,5-difluoro-N-(pyrimidin-4-yl)-7,8-dihydro-5H-pyrido[2,3-b]azepine-9(6H)-carboxamide] | ≤ 200% | – | 1 to 25 µM
28 | COc1nccc(NC(=O)N2CCCOc3ccc(-c4cccc(Cl)c4)nc32)n1 [Compound 854] | > 200% | – | 1 to 25 µM
29 | CCN1CCCN(C(=O)Nc2ccncc2F)c2nc(-c3cccc(Cl)c3)ccc21 [Compound 808] | > 200% | – | 1 to 25 µM
30 | Cc1cccc(NC(=O)N2CCCCc3ccc(-c4cccc(Cl)c4)nc32)n1 [Compound 733] | ≤ 200% | – | > 25 µM
31 | O=C(Nc1ccncc1)N1CCOc2ccc(-c3ccccc3F)nc21 [Compound 544] | > 200% | B (EC1.5 1-25 μM) | –
32 | CC1CCN(C(=O)Nc2cncnc2)c2nc(-c3cccc(C(F)(F)F)c3)ccc21 (stereo not drawn) [Compound 802] | > 200% | – | < 1 µM
33 | COc1nccc(NC(=O)N2CCCCc3ccc(-c4cccc(C(F)(F)F)c4)nc32)n1 [Compound 811] | ≤ 200% | – | 1 to 25 µM
34 | Cc1cnc(CNC(=O)N2CCOc3ccc(-c4cccc(C(F)(F)F)c4)nc32)cn1 [Compound 504] | ≤ 200% | C (EC1.5>25 μM) | –
35 | O=C(Nc1ccncc1F)N1CCOc2cnc(-c3cccc(C(F)(F)F)c3)nc21 [Compound 716] | > 200% | – | 1 to 25 µM
36 | O=C(Nc1ccncc1F)N1CCCC(F)(F)c2ccc(-c3cccc(Cl)c3)nc21 [Compound 782] | ≤ 200% | – | > 25 µM
37 | Cc1cc(OCC(O)CO)nc(NC(=O)N2CCCc3ccc(-c4cccc(C(F)(F)F)c4)nc32)n1 (stereo not drawn) [Compound 640] | > 200% | B (EC1.5 1-25 μM) | –
38 | Cc1ccc(NC(=O)N2CCOc3ccc(-c4cccc(C(F)(F)F)c4)nc32)c(C)n1 [Compound 552] | > 200% | B (EC1.5 1-25 μM) | –
39 | CC1(C)CCN(C(=O)Nc2cccnc2)c2nc(-c3cccc(Cl)c3)ccc2C1=O [Compound 833] | ≤ 200% | – | > 25 µM
